Data from a melting point compilation (Tetko et al.; mined from patent text by program, amines drawn as free bases though some values may be those of a salt).

SMILES	melting point [°C]
Brc1ccc2c(c1)sc1cc(Br)ccc12	171 to 173
CC(C)CN(C(=O)N(CCCl)N=O)C1OC(OC2CCCCC2)C(O)C(O)C1O (centres undefined)	74 to 76
O=S(=O)(Nc1cc(Cl)c(Cl)c(Cl)c1)c1cc(S(=O)(=O)Nc2cc(Cl)c(Cl)c(Cl)c2)c2cc(O)ccc2c1	164 to 166
CSc1nncc(-c2ccccc2)n1	99 to 100
CCC(=O)c1cc(C#N)c(=O)[nH]c1C=CN(C)C	278 to 280
CCCCc1ccc(CCc2cc3c(s2)NC(=S)CN=C3c2ccccc2Cl)cc1	152 to 154
CC(C)C(=O)c1cc2ccncc2[nH]1	224 to 228
O=C1C=CC(=O)C(C(=O)CCn2sc(Cl)cc2=O)=C1	181 to 183
CCOC(=O)C1N=C(c2ccccc2)c2cc(Cl)ccc2N(C)C1=O (centres undefined)	180
O=c1cc2c(n[nH]1)-c1ccccc1CC2	236
OCCCCC(F)(F)C(F)(F)CCO	52 to 55
CN(C(=O)Cc1ccc(Cl)c(Cl)c1)[C@@H]1Cc2ccccc2C[C@H]1N1CCCC1 (relative stereo)	161 to 164
c1cnc(Sc2cccc3cccnc23)nc1	165 to 168
CCC(C(C)=CC(CNC(=O)c1cccnc1)=NO)[N+](=O)[O-] (centres undefined)	105 to 108
CCn1cc(Cl)nc(SCC(=O)Nc2ccccc2)c1=O	156 to 158
CC(CN(O)C(N)=O)OCc1cc2ccccc2s1 (centres undefined)	132 to 133
Nc1nc(O)c2ccnc-2[nH]1	> 300
Cc1ccccc1SN(C)C(=O)Oc1cccc2c1OC(C)(C)C2	78
N#CNC(=Nc1ccncc1)NCCOc1ccccc1	167 to 170
CCOC(=O)c1cn(C2CC2)c2c(F)c(N3CCNC(C)C3)c(F)c(N)c2c1=O (centres undefined)	132 to 134
CON(C)C(=O)c1cc2sc(C)c(N(C)S(=O)(=O)c3cccs3)c2[nH]1	187
COc1cc2c3c(c1)[nH]c(=S)n3CCC2	188 to 192

SMILES	melting point [°C]
c1cc2c(cn1)OCCN2	167 to 169
COC(=O)N1C(=O)NC(C)=C(C(=O)OC(C)C)C1c1cccc(Cl)c1Cl (centres undefined)	208 to 210
CC(C)N=C(NC#N)Nc1cc(Cl)cc(Cl)c1	156 to 158
CC(C(=O)O)c1ccc(-n2cccn2)cc1 (centres undefined)	137 to 138
CCOC(=O)c1cc2c(O)nncc2nc1NC(C)CC (centres undefined)	184 to 185
O=C(O)CCC(=O)OCc1ccccc1[N+](=O)[O-]	63 to 65
C=CCOC(=O)C1=C2[C@@H](OC)CCC[C@@H]2[C@@H]2[C@@H]([C@H](O)C(F)(F)F)C(=O)N12	78 to 85
O=C1N[C@@H](CSSc2ccccc2)C(=O)N2CCC[C@H]12	120
FC(F)(F)c1cc(CO[C@H]2CCCN(Cc3ncncn3)[C@H]2c2ccccc2)cc(C(F)(F)F)c1	117 to 119
O=C(O)C1=Cc2cc(S(=O)(=O)NCc3ccccc3)cc(Cl)c2OC1C(F)(F)F (centres undefined)	167 to 174
Cc1onc(CCc2ccccc2)c1C(N)=O	135 to 136
CCCN(CCC)C(=O)N1CCc2ccc(S(=O)(=O)NC(=O)NC3CCCCC3)cc2CC1	179 to 180
COC(=O)Cc1ccc(O)c(Cl)c1	35 to 36
NCCNc1ccc2ncc(Br)n2n1	158 to 159
CC12CC(=O)C3C(CCC4CC=CCC43C)C1CCC2C#N (centres undefined)	189 to 191
Cn1c(Cl)c(C(=O)C(=O)N2CCCC2)c2ccc(Cl)cc21	174 to 175
NC(=O)N(O)Cc1ccc(Cl)s1	138 to 140
Cc1c(-c2ccc(Cl)s2)ccc(N)c1C#N	108 to 110
COCn1cc2cc(C)c(NC(=O)c3cc(OC)nn3-c3ncccc3Cl)c(C(=O)NC(C)C)c2n1	148
CCCCCCCCCCCCCCCCOc1nc2ccc(C)cc2c(=O)o1	67
CC[C@H]1[C@@H](N)CN1c1cc2c(cc1F)c(=O)c(C(=O)O)cn2C1CC1 (relative stereo)	236 to 237

Next, values leading:

melting point [°C]	SMILES
140 to 141	COc1cc(CCNC(=S)Nc2nccs2)ccc1OC(C)C
175 to 176	CCOC(=O)c1cn(-c2ccc(OC)cc2)c2c(F)c(F)c(F)c(C)c2c1=O
132 to 133	CC(C)c1ccccc1Sc1c(O)cc(-c2ccc(OCCCc3ccccc3)cc2)oc1=O
155 to 156	CC(C)(C)OC(=O)n1ncc2ccc(NC(=O)c3ccccc3O)cc21
174 to 175	COc1cc2cc(C(=O)N3CC(CCl)c4c3cc(N(C)C)c3ccccc43)[nH]c2c(OC)c1OC (centres undefined)
103 to 104	O=C1C(Cc2ccc(Br)cc2)=C(C(F)F)C(=O)c2ccccc21
232 to 234	COc1cc2c(c3c1OC(C)(C)C3)C(c1cccc(-c3ccc(N)cc3)c1)=NCC2(C)C
175 to 176	N#CCc1ccc(-c2nc3ccccc3o2)cc1-c1cccc(C#N)c1
117 to 119	CC(=O)c1cc(-c2ccncc2)sc1-c1ccncc1
116 to 118	C=CCN1CCc2c(sc(N)c2C(=O)c2ccc(Br)cc2)C1
58 to 65	CCOC(=O)CCCn1c(C(=O)C2CCN(CCC3(c4ccc(Cl)c(Cl)c4)CCN(C(=O)c4cc(OC)c(OC)c(OC)c4)C3)CC2)nc2ccccc21 (centres undefined)
45	O=C1c2ccc(OC(c3ccccc3)c3ccccc3)cc2OCC1Cc1cccnc1 (centres undefined)
113 to 115	CCN1C(=O)C(C)(C)C(=O)N(C)c2cc(CN(CCn3ccc4oc(C)cc4c3=O)Cc3cc(COC)nn3C)ccc21
285 to 288	O=c1[nH]c2cc(Cl)cc(Cl)c2c(O)c1Sc1ccccc1Cl
218 to 220	COc1ccc2c(c1)CCCC21NC(=O)NC1=O (centres undefined)
137 to 138	CCC(O)(c1cccc(C(F)(F)F)c1)c1ccc(O)cc1O (centres undefined)
226 to 229	Cc1cc(OCC(=O)O)c2sc3ccccc3c(=O)c2c1C
170 to 185	CC1(C)CCC(=O)Nc2ccc(Nc3ncc(Cl)c(N[C@@H]4CCCC[C@H]4NS(C)(=O)=O)n3)cc21
133 to 135	N#Cc1cc(Cl)cc(Oc2ccc(CC(=O)Nc3ccc(CS(N)(=O)=O)cc3)cc2Br)c1

melting point [°C]	SMILES
185 to 186	CCOC(=O)c1cn(CC)c2nc(-c3ccncc3)c(F)cc2c1=O
150 to 152	CC(C)(C)OC(=O)N1CCc2cc(OCc3ccccc3)c(OCc3ccccc3)cc2C1Cc1ccc([N+](=O)[O-])cc1 (centres undefined)
130 to 131	Cc1c(O)ccc2c1OCC(c1ccc3c(c1)OCO3)C2 (centres undefined)
> 260	CCCCc1cc(=O)c2ccccc2n1Cc1ccc(-c2ccccc2C(=O)O)cc1
96 to 97	COC(=O)Cc1cn(-c2ccccc2)nc1OCc1ccc(OCc2nc(-c3ccccc3)oc2C)nc1
225 to 229	Cc1ccc2oc(=O)c(C(=O)Oc3cc([N+](=O)[O-])ccc3[N+](=O)[O-])cc2c1
102 to 103	CCC(CC)c1nn(-c2ccc(C(F)(F)F)cn2)cc1CCCOc1c(F)cccc1CC(=O)O
> 300	CC(=O)Nc1ccc2[nH]c(C(=O)N3CC(CCl)c4c3cc(N)c3ccccc43)cc2c1 (centres undefined)
136 to 140	Cc1cccc(NC(=O)NC2(C)N=C(N3CCN(C)CC3)c3cccc(C)c3N(C)C2=O)c1 (centres undefined)
171 to 172	COc1ccc(C(=O)Oc2ccc(C(=O)OCc3ccccc3)c(O)c2)cc1C12CC3CC(CC(C3)C1)C2
98.5 to 101	CCCc1cn(C(C)(C)C(=O)N(C)C)nc1-c1ccccc1
108 to 109	C=CCOC(=O)c1ccc(NC(=O)C(=NO)c2ccc3c(c2)C(C)(C)CCC3(C)C)cc1O
63 to 65	COc1ccc2cc(CCl)ccc2c1
140 to 142	CCOC(=O)COc1c(Br)cc(-c2cccc3sc4ccccc4c23)cc1Br
163 to 165	CC(C)NC(=O)CN1CCN(CCc2ccc(-c3cccc(N)n3)cc2)CC1
192 to 194	N#Cc1ccc(Oc2ccc3c(c2)CCNC3=O)nc1
182 to 183	O=C(O)c1ccccc1-c1ccc(-c2ccc(C(F)(F)F)cc2)o1
241 to 242	CS(=O)(=O)CCNC(=O)c1ccc(-c2ccc3cnc(Nc4ccc(N5CCOCC5)cc4)nn23)cc1
150 to 151	CCNC(=O)c1ccc2c(c1)Nc1ccccc1S2

melting point [°C]	SMILES
122 to 123	OCc1cn(Cc2ccc(OCc3ccccc3)cc2)cc1-c1ccccc1
246 to 249	O=C(O)CN1C(=O)C(=CC=Cc2ccccc2-c2ccccc2)SC1=S
90 to 90.5	COC(=O)c1ccc(OCc2ccccc2)cn1
330 to 333	Cn1c(=O)c2cc(C(=O)O)cn2c2ccccc21
138 to 139	Cc1onc(-c2ccc(C(F)(F)F)cc2)c1CCC(=O)O
223 to 225	Cc1c(-c2ccc(O)cc2)sc(C=O)c1-c1ccc(O)cc1
157 to 158	CN(C)CCN1CCC(O)(c2ccccc2)C(C(O)c2ccccc2)C1 (centres undefined)
178 to 180	S=c1[nH]c(-c2ccccc2)c(-c2ccccc2)n1Nc1cccc(Cl)c1
147 to 152	O=C(Nc1ccc(-n2nc(C(F)(F)F)cc2C2CC2)cc1)c1cccc(F)c1F
> 280	C[C@@H]1CCCC[C@@H]1Nc1c(C(N)=O)cnc2[nH]c(-c3ccc(F)cc3)cc12
253	Fc1ccc(Cn2c(NC3CCN(CCNc4nc5ccccc5[nH]4)CC3)nc3ccccc32)cc1
128 to 130	CN1CCC(Oc2cc3ccccc3cc2C(N)=O)C1 (centres undefined)
245 to 249	CN(C)n1c(S)nc2ccccc2c1=O
193 to 194	Fc1cccc(F)c1-c1ncc(-c2ccc(Br)cc2)cn1
170	COc1ccc(-c2nc3cc(F)ccc3s2)cc1OC(=O)N1CCOCC1
128 to 138	Clc1cccc(Nc2ccccc2)c1
121 to 123	N#CCc1cccc(C#CCOc2ccc(Br)cn2)c1
65 to 66	Cc1ccc2c(c1)C(C)(C)[C@@H](C)[C@H](C)C2(C)C (relative stereo)
